Laboratory results published in patent US6767890B1, “Peptides having anti-cancer and anti-inflammatory activity” (priority 1998, dated 2004).
Several values for one entry are separate records, joined by “and”; a condition that tells them apart may be missing. Identical values can stand only once.

Tests used:
[1] = tested on: DNBS-induced distal colitis; assay: Inflammation, Inflammatory Bowel Disease (DNBS distal colitis); format: in vivo, rat; conditions: PO, Peptide 30 mg/kg × 7, Sulfasalazine 300 mg/kg × 7
Method: (§1) For in vivo assay, distilled water and saline was used as vehicle in oral and intraperitoneal administration, respectively. Dosing volume was 20 ml/kg for mice or 10 ml/kg for rats.
Groups of 3 Sprague-Dawley derived male rats weighing 150±20 gms and fasted for 24 hours were used. Distal colitis was induced by intra-colonic instillation of DNBS (2,4-dinitrobenzene sulfonic acid, 30 mg in 0.5 ml ethanol 30%) after which air (2 ml) was gently injected through the cannula to ensure that the solution remains in the colon. Test substance was administered PO (30 mg/kg) at 24 and 2 hours before DNBS instillation. Then, the animals received test compound every 24 hours for 5 consecutive days. The control group was given vehicle alone as compound dosing pattern. The animals were sacrificed 24 hours after the final dose of test compound administration and each colon was removed and weighed. Colon-to-body weight ratio was obtained from the percentage of the comparison between the animal colon weight and body weight on the 8th day. A 30 percent or more (±30%) reduction in colon-to-body weight ratio relative to the vehicle treated control group was considered significant.

[2] = tested on: ovalbumin-induced bronchoconstriction; assay: Pulmonary, Histamine H3 (ovalbumin-induced bronchoconstriction); format: in vivo, guinea pig; conditions: Peptide PO 10 mg/kg, R-α-methylhistamine IV 30 mg/kg
Method: as §1
A group of Duncan Hartley derived male or female guinea pigs weighing 250±50 gms were anesthetized with pentobarbital sodium (50 mg/kg IP plus an additional 15 mg/kg IP if required) and succinylcholine chloride (2 mg/animal IP) was subsequently administered to prevent spontaneous respiration. Body temperature was maintained at 37° to 38° C. The trachea was cannulated and the guinea pig ventilated with a Harvard rodent respirator in a closed system. Tracheal pressure (TP) was recorded through a side-arm of the cannula connected to a P23ID Statham transducer. Respiratory rate set at 50 strokes/minute with a stroke volume (approximately 1 ml/100 g) sufficient to produce a baseline tracheal pressure of 6 cm H2O. Mean arterial pressure was monitored from a cannulated carotid artery, and heart rate was obtained from chest electrodes arranged for lead II. The jugular vein was cannulated for IV vehicle or drug administration in a volume of 1 ml/kg. Guinea pigs were sensitized with IP injections of ovalbumin 0.5 μg+Al(OH)3 1 mg (0.5 ml/animal) on days 1, and boosted with same dosage of ovalbumin and Al(OH)3 vaccine on day 8; and the animals were ready to be challenged between days 19 and 23 to get a submaximal ovalbumin (50 μg/kg IV)-induced bronchoconstriction, reflected as an increase in tracheal pressure (cm H2O). […]. Test substances were administered PO (10 mg/kg) at 60 minutes before ovalbumin (50 μg/kg IV) challenge in 3 guinea pigs. Tracheal pressure, blood pressure and heart rate were measured immediately before and after ovalbumin challenge.

[3] = tested on: T1, Ca++/Calmodulin Dep. PK II; assay: Ca++/Calmodulin Dep. PK II enzyme assay; format: biochemical, rat; conditions: 100.0 μM; average of duplicate; negative = stimulation
T1 construct: other: 100.0 μM; average of duplicate; negative = stimulation
Method: The peptide was further screened in vitro in a variety of enzyme and biochemical assays. Methods employed were adapted from the scientific literature to maximize reliability and reproducibility. The primary literature reference for each assay is listed in Table 11 opposite the results for each assay.
Results presented in Table 10, “Results,” are the average of duplicate determinations, unless otherwise noted.
Reference compounds were tested concurrently at 5 concentrations as an integral part of each assay to ensure the validity of the results obtained.
(§2) Enzyme assays were performed under conditions described in Table 8, “Experimental Conditions.”. The commercial suppliers and catalog numbers of substrates employed in this study are given in Table 7, “Material Sources.” The name, commercial source, and catalog numbers of concurrent reference compounds (controls) employed in this study are given in Table 9, “Reference Compound Data.” The reaction catalyzed by each enzyme is listed in Table 8, “Experimental Conditions.”
(§3) Biochemical assay results are presented in Table 10, as the percent inhibition of specific binding or activity, and unless noted are the average of duplicate tubes tested at each concentration.

[4] = target: T2, Cyclooxygenase-1 (Ovis aries, UniProt P05979); assay: Cyclooxygenase-1 enzyme assay; format: biochemical, ram; conditions: 300.0 μM; average of duplicate; negative = stimulation
T2 construct: ram seminal; from tissue; host or cells: ram seminal vesicle
Method: The peptide was further screened in vitro in a variety of enzyme and biochemical assays. Methods employed were adapted from the scientific literature to maximize reliability and reproducibility.
Unless otherwise indicated, the peptide was tested in duplicate at the concentrations indicated for each assay. Results presented in Table 10, “Results,” are the average of duplicate determinations, unless otherwise noted.
as §2, §3

[5] = tested on: oxazolone-induced ear swelling; assay: Immune Suppression, Cellular (oxazolone ear thickness); format: in vivo, mouse; conditions: IP, Peptide 100 mg/kg × 5, Cyclophosphamide 30 mg/kg × 5
Method: as §1
Groups of 5 ICR derived male mice weighing 22±1 gms were used. The preshaved abdominal surface was sensitized by application of oxazolone 0.1 ml of 5% solution. […] After additional four days, the animals were challenged by secondary application of oxazolone (0.025 ml of 5% solution) to the right ear. After a further 24 hours, each mouse was sacrificed and ear thickness measured with a Dyer Model micrometer gauge. A 30 percent or more (≧30%) decrease relative to the vehicle control group was considered significant and indicated possible immunosuppressant activity.

[6] = tested on: Sarcoma 180 tumor; assay: Anti-Cancer Activity Against Mouse Tumor Sarcoma 180; format: in vivo; conditions: 10 mg/kg, listed as natural peptide
Method: This model has been used extensively as indicative of neovascularization in mammals inasmuch as the tumor so implanted is quickly vascularizing.
Experimental Design: All mice were weighed at test initiation and test termination. The animals were divided into three groups. The Sarcoma 180 tumor was made up from a passage mouse to furnish […] per 0.1 mL inoculum. The cells were injected into the left leg hamstring muscle mass. The was delivered to the mice by I.P. injections, or gavage on days 1-5.
At the termination of the experiments, the mice were weighed and the left rear leg was amputated at the thigh. The skin was removed from the leg to expose the site at which the tumor was located. […].

T2 sequence (P05979 25-600): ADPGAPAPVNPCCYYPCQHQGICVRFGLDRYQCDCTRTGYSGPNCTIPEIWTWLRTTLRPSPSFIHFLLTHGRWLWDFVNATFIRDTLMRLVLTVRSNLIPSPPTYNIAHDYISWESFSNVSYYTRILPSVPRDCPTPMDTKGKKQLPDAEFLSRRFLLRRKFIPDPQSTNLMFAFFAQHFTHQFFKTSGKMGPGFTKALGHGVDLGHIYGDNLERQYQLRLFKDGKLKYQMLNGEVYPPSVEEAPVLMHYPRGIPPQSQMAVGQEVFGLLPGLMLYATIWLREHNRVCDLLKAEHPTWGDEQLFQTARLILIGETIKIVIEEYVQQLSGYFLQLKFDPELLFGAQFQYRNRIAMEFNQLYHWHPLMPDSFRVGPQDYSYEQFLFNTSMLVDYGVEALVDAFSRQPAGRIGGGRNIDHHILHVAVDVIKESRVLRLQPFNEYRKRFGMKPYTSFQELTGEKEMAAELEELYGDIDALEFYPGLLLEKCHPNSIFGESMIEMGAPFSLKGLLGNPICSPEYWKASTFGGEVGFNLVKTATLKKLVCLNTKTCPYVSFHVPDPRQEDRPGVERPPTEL

Substance: LEU-PRO-PRO-SER-ARG [Peptide]
- Ratio Net ([1]; group mean minus blank-control): 0.276%
- Ratio Ind., X (group mean) ([1]; group mean): 0.646%
- Ratio Ind. (colon-to-body weight ratio) ([1]; individual rat, Colon (g)/8th B.W. × 100%): 0.683% and 0.608%
- % INH. ([1]; reduction in colon-to-body weight ratio relative to vehicle control): 22%
- Inc. of TP X ± SEM ([2]; group mean, N=3): 31.5 ± 2.3 cm H2O
- Inc. of TP Ind. ([2]; individual guinea pig, tracheal pressure after ovalbumin 50 μg/kg IV): 27.5 cm H2O and 35.5 cm H2O and 31.5 cm H2O
- % INH. ([2]; inhibition of induced bronchoconstriction relative to vehicle): −6.8%
- % Inhibition [3]: 12%
- % Inhibition [4]: 2%
- % INH. ([5]; decrease of net ear thickness relative to vehicle control): 17%
- Thickness Net, X (group mean) ([5]; group mean): 23.0 × 0.1 mm
- Thickness Net ([5]; individual mouse, R. Ear minus L. Ear): 20 × 0.1 mm and 21 × 0.1 mm and 24 × 0.1 mm and 27 × 0.1 mm
- Thickness R. Ear ([5]; individual mouse, challenged right ear, 24 hours after oxazolone challenge): 43 × 0.1 mm (2×) and 44 × 0.1 mm and 50 × 0.1 mm
- Thickness L. Ear ([5]; individual mouse, left ear): 23 × 0.1 mm (2×) and 22 × 0.1 mm and 20 × 0.1 mm
- % tumor inhibition ([6]; I.P. injections or gavage on days 1-5, 6 mice): 99.0%
- Mean tumor wt. gain, gm ([6]; net tumor weight, I.P. injections or gavage on days 1-5, 6 mice): 0.03 gm
